Reference: ChEMBL document CHEMBL4680246, “Design, synthesis and biological evaluation of novel O-carbamoyl ferulamide derivatives as multi-target-directed ligands for the treatment of Alzheimer's disease” (Eur J Med Chem, 2020)

Biological target: Cholinesterase (Homo sapiens, UniProt P06276)
Test: Inhibition of human serum BuChE using acetylcholine iodide as substrate incubated for 15 mins by Ellman's method

Cholinesterase (Homo sapiens, UniProt P06276), sequence (P06276 whole entry): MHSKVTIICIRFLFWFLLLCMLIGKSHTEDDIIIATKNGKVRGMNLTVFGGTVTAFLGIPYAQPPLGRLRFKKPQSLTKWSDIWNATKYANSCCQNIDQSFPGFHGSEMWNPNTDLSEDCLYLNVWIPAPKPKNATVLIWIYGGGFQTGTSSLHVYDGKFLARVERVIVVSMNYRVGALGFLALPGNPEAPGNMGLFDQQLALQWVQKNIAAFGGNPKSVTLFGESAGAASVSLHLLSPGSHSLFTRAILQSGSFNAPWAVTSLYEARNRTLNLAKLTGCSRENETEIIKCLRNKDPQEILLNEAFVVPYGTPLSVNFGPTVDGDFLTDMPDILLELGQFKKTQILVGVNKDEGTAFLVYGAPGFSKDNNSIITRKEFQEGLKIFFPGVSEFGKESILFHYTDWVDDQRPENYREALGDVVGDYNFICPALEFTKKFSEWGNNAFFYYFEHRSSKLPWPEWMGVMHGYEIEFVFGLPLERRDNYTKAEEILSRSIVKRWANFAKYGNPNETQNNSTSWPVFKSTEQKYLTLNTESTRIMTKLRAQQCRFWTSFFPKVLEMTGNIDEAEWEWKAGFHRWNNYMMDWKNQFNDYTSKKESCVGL

In order of falling IC50:
1. CCN(C)C(=O)Oc1ccc(/C=C/C(=O)N2CCN(Cc3ccccc3)CC2)cc1  29.7 µM
2. CCN(Cc1ccccc1)C(=O)/C=C/c1ccc(OC(=O)N(c2ccccc2)c2ccccc2)c(OC)c1  25.3 µM
3. COc1cc(/C=C/C(=O)N2CCc3ccccc3C2)ccc1OC(=O)N(C)OC  16.2 µM
4. CCN(C)C(=O)Oc1ccc(/C=C/C(=O)N2CCCCC2)cc1OC  12.6 µM
5. COc1cc(/C=C/C(=O)N2CCc3ccccc3C2)ccc1OC(=O)N(C)C  9.5 µM
6. COc1cc(/C=C/C(=O)N2CCC(Cc3ccccc3)CC2)ccc1OC(=O)N(C)C  7.6 µM

Biological target: T1, Amine oxidase [flavin-containing] B (Homo sapiens, UniProt P27338)
T1 sequence (P27338 whole entry): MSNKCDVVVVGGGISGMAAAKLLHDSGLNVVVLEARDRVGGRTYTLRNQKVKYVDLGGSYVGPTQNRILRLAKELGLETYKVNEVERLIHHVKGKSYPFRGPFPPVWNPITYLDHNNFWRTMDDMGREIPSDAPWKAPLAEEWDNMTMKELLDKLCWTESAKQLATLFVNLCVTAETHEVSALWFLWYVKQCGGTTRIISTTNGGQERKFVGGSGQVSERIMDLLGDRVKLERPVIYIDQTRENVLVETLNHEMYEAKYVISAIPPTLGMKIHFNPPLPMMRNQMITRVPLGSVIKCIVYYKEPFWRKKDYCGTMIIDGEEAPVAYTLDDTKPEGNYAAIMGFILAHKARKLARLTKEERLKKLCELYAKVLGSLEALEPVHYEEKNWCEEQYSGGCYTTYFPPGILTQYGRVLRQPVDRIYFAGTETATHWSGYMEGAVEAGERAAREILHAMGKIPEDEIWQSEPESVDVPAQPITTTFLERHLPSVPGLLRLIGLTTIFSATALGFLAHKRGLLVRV
Test: Inhibition of recombinant human MAO-B

In order of falling IC50:
1. CCN(C)C(=O)Oc1ccc(/C=C/C(=O)N2CCN(Cc3ccccc3)CC2)cc1  21.3 µM
2. CCN(C)C(=O)Oc1ccc(/C=C/C(=O)N2CCCCC2)cc1OC  16.3 µM
3. CCN(Cc1ccccc1)C(=O)/C=C/c1ccc(OC(=O)N(c2ccccc2)c2ccccc2)c(OC)c1  15.9 µM
4. COc1cc(/C=C/C(=O)N2CCc3ccccc3C2)ccc1OC(=O)N(C)C  9.8 µM
5. COc1cc(/C=C/C(=O)N2CCC(Cc3ccccc3)CC2)ccc1OC(=O)N(C)C  8.9 µM
6. COc1cc(/C=C/C(=O)N2CCc3ccccc3C2)ccc1OC(=O)N(C)OC  6.8 µM

Biological target: Acetylcholinesterase (Electrophorus electricus, UniProt O42275)
Test: Inhibition of Electrophorus electricus AChE using acetylcholine iodide as substrate incubated for 15 mins by Ellman's method

Acetylcholinesterase (Electrophorus electricus, UniProt O42275), sequence (O42275 whole entry): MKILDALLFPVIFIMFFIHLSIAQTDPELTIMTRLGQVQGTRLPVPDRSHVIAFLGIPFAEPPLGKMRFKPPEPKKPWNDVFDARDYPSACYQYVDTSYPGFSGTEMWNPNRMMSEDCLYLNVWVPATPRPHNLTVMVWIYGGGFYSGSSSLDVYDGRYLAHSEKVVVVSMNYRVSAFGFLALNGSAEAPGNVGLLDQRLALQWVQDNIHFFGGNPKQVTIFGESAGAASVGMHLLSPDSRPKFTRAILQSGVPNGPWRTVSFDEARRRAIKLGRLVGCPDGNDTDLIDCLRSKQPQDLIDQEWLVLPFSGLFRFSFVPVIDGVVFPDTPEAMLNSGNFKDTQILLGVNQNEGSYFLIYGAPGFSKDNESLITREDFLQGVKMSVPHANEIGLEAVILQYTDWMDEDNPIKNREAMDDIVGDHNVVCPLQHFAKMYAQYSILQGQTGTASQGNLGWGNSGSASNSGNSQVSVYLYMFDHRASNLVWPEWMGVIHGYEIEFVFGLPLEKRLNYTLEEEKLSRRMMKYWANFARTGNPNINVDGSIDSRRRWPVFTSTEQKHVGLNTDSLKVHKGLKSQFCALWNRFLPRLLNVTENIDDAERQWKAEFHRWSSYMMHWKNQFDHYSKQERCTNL

In order of falling IC50:
1. COc1cc(/C=C/C(=O)N2CCc3ccccc3C2)ccc1OC(=O)N(C)C  26.8 µM
2. CCN(C)C(=O)Oc1ccc(/C=C/C(=O)N2CCN(Cc3ccccc3)CC2)cc1  25.6 µM
3. COc1cc(/C=C/C(=O)N2CCC(Cc3ccccc3)CC2)ccc1OC(=O)N(C)C  18.9 µM
4. CCN(Cc1ccccc1)C(=O)/C=C/c1ccc(OC(=O)N(c2ccccc2)c2ccccc2)c(OC)c1  18.9 µM
5. CCN(C)C(=O)Oc1ccc(/C=C/C(=O)N2CCCCC2)cc1OC  15.3 µM
6. COc1cc(/C=C/C(=O)N2CCc3ccccc3C2)ccc1OC(=O)N(C)OC  11.8 µM

Species on record: Homo sapiens
Test: Selectivity index, ratio of IC50 for human erythrocytes Ache to IC50 for human serum BuChe

In order of falling Ratio IC50:
1. COc1cc(/C=C/C(=O)N2CCC(Cc3ccccc3)CC2)ccc1OC(=O)N(C)C  2.2
2. COc1cc(/C=C/C(=O)N2CCc3ccccc3C2)ccc1OC(=O)N(C)C  1.9
3. CCN(Cc1ccccc1)C(=O)/C=C/c1ccc(OC(=O)N(c2ccccc2)c2ccccc2)c(OC)c1  1.1
4. CCN(C)C(=O)Oc1ccc(/C=C/C(=O)N2CCCCC2)cc1OC  0.85
5. COc1cc(/C=C/C(=O)N2CCc3ccccc3C2)ccc1OC(=O)N(C)OC  0.76
6. CCN(C)C(=O)Oc1ccc(/C=C/C(=O)N2CCN(Cc3ccccc3)CC2)cc1  0.5

Biological target: Cholinesterase (Equus caballus, UniProt P81908)
Test: Inhibition of equine serum BuChE using BTC as substrate after 15 mins by Ellman's method

Cholinesterase (Equus caballus, UniProt P81908), sequence (P81908 whole entry): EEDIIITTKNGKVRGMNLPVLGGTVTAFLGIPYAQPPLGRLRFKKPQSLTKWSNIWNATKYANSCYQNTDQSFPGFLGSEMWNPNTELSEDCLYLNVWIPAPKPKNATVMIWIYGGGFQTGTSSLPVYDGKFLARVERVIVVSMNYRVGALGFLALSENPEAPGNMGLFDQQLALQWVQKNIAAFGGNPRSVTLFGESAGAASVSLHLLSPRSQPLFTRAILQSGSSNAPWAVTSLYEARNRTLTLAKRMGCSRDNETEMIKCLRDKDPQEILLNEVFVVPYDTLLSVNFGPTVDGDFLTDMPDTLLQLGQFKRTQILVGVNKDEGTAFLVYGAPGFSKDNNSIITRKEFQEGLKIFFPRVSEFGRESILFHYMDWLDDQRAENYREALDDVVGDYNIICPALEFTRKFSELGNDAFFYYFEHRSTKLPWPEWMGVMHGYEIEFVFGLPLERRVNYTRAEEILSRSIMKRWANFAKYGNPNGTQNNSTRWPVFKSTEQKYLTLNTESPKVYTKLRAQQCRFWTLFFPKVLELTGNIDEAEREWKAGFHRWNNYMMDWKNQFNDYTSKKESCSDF

In order of falling IC50:
1. COc1cc(/C=C/C(=O)N2CCc3ccccc3C2)ccc1OC(=O)N(C)OC  29.2 µM
2. CCN(Cc1ccccc1)C(=O)/C=C/c1ccc(OC(=O)N(c2ccccc2)c2ccccc2)c(OC)c1  24.6 µM
3. CCN(C)C(=O)Oc1ccc(/C=C/C(=O)N2CCN(Cc3ccccc3)CC2)cc1  20.3 µM
4. CCN(C)C(=O)Oc1ccc(/C=C/C(=O)N2CCCCC2)cc1OC  19.6 µM
5. COc1cc(/C=C/C(=O)N2CCc3ccccc3C2)ccc1OC(=O)N(C)C  3.7 µM
6. COc1cc(/C=C/C(=O)N2CCC(Cc3ccccc3)CC2)ccc1OC(=O)N(C)C  1.3 µM

Species on record: Homo sapiens
Test: Selectivity index, ratio of IC50 for recombinant human MAO-A to IC50 for recombinant human MAO-B

In order of rising Ratio IC50:
1. CCN(C)C(=O)Oc1ccc(/C=C/C(=O)N2CCN(Cc3ccccc3)CC2)cc1  0.5
2. CCN(Cc1ccccc1)C(=O)/C=C/c1ccc(OC(=O)N(c2ccccc2)c2ccccc2)c(OC)c1  1.5
3. COc1cc(/C=C/C(=O)N2CCC(Cc3ccccc3)CC2)ccc1OC(=O)N(C)C  1.8
4. CCN(C)C(=O)Oc1ccc(/C=C/C(=O)N2CCCCC2)cc1OC  1.8
5. COc1cc(/C=C/C(=O)N2CCc3ccccc3C2)ccc1OC(=O)N(C)OC  3.3
6. COc1cc(/C=C/C(=O)N2CCc3ccccc3C2)ccc1OC(=O)N(C)C  3.6

Biological target: Amyloid-beta precursor protein (Homo sapiens) (UniProt P05067)
Test: Inhibition of self-induced Amyloid beta (1 to 42 residues) (unknown origin) aggregation at 25 uM measured after 24 hrs by thioflavin T-based fluorimetric assay relative to control

Amyloid-beta precursor protein (Homo sapiens), sequence (P05067 whole entry, the tested form may be a part): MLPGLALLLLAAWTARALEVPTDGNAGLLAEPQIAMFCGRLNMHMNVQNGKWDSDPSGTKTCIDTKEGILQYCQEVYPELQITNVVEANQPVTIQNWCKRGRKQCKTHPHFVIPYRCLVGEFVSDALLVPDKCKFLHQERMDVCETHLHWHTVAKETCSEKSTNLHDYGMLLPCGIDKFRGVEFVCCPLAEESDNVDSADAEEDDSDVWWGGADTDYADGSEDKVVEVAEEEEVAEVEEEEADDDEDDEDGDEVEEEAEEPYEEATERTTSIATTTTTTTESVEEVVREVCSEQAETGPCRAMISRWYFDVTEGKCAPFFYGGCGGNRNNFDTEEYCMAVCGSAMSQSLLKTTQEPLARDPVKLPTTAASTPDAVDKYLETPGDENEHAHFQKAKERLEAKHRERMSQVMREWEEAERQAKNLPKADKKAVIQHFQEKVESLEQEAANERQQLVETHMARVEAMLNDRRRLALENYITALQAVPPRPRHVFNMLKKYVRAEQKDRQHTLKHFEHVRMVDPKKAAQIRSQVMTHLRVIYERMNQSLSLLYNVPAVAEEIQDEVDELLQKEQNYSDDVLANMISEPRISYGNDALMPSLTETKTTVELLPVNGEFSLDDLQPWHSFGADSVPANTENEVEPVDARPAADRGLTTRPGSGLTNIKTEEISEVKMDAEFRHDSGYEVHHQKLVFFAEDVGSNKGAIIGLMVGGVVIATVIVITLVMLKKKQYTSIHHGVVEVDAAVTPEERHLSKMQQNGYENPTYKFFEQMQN

Molecule `COc1cc(/C=C/C(=O)N2CCC(Cc3ccccc3)CC2)ccc1OC(=O)N(C)C` has an inhibition of 56.6%.

Biological target: Acetylcholinesterase (Homo sapiens, UniProt P22303)
Test: Inhibition of human erythrocytes AChE using acetylcholine iodide as substrate incubated for 15 mins by Ellman's method

Acetylcholinesterase (Homo sapiens, UniProt P22303), sequence (P22303 whole entry): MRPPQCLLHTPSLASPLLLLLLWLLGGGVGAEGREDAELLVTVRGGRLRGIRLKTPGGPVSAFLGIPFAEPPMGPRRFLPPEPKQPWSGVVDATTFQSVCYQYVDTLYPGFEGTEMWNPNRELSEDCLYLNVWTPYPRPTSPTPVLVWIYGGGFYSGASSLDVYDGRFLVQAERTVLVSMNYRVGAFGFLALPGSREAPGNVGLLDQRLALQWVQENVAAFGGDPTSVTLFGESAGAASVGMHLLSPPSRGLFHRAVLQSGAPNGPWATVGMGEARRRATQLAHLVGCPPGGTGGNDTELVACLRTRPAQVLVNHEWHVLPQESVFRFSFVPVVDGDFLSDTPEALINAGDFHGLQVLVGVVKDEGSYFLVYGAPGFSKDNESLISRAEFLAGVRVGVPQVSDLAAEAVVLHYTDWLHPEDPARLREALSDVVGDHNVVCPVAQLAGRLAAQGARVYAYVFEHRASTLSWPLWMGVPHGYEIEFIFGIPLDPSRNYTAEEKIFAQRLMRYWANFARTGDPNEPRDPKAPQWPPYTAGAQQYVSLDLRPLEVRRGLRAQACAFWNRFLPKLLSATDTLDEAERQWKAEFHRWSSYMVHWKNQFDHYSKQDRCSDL

In order of falling IC50:
1. CCN(Cc1ccccc1)C(=O)/C=C/c1ccc(OC(=O)N(c2ccccc2)c2ccccc2)c(OC)c1  28.1 µM
2. COc1cc(/C=C/C(=O)N2CCc3ccccc3C2)ccc1OC(=O)N(C)C  17.9 µM
3. COc1cc(/C=C/C(=O)N2CCC(Cc3ccccc3)CC2)ccc1OC(=O)N(C)C  16.6 µM
4. CCN(C)C(=O)Oc1ccc(/C=C/C(=O)N2CCN(Cc3ccccc3)CC2)cc1  14.8 µM
5. COc1cc(/C=C/C(=O)N2CCc3ccccc3C2)ccc1OC(=O)N(C)OC  12.3 µM
6. CCN(C)C(=O)Oc1ccc(/C=C/C(=O)N2CCCCC2)cc1OC  10.7 µM

System: not listed separately
Test: Selectivity index, ratio of IC50 for Electrophorus electricus AChE to IC50 for equine serum BuChE

In order of falling Ratio IC50:
1. COc1cc(/C=C/C(=O)N2CCC(Cc3ccccc3)CC2)ccc1OC(=O)N(C)C  14.5
2. COc1cc(/C=C/C(=O)N2CCc3ccccc3C2)ccc1OC(=O)N(C)C  7.2
3. CCN(C)C(=O)Oc1ccc(/C=C/C(=O)N2CCN(Cc3ccccc3)CC2)cc1  1.3
4. CCN(C)C(=O)Oc1ccc(/C=C/C(=O)N2CCCCC2)cc1OC  0.78
5. CCN(Cc1ccccc1)C(=O)/C=C/c1ccc(OC(=O)N(c2ccccc2)c2ccccc2)c(OC)c1  0.77
6. COc1cc(/C=C/C(=O)N2CCc3ccccc3C2)ccc1OC(=O)N(C)OC  0.4

Biological target: T2, Amine oxidase [flavin-containing] A (Homo sapiens, UniProt P21397)
T2 sequence (P21397 whole entry): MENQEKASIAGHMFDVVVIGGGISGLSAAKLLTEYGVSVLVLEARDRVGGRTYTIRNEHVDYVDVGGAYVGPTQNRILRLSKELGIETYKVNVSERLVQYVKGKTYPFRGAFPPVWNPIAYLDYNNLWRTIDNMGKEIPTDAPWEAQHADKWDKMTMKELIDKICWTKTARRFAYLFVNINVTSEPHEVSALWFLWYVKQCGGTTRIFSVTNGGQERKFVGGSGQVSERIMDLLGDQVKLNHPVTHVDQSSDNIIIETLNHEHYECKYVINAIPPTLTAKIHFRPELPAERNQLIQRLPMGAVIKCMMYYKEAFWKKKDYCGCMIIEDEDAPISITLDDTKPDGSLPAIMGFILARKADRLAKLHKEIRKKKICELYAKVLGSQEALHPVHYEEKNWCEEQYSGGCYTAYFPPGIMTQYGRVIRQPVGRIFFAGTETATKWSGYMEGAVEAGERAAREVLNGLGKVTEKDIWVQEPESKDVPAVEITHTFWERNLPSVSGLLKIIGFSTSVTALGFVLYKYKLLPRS
Test: Inhibition of recombinant human MAO-A

In order of rising IC50:
1. CCN(C)C(=O)Oc1ccc(/C=C/C(=O)N2CCN(Cc3ccccc3)CC2)cc1  9.8 µM
2. COc1cc(/C=C/C(=O)N2CCC(Cc3ccccc3)CC2)ccc1OC(=O)N(C)C  16.3 µM
3. COc1cc(/C=C/C(=O)N2CCc3ccccc3C2)ccc1OC(=O)N(C)OC  22.2 µM
4. CCN(Cc1ccccc1)C(=O)/C=C/c1ccc(OC(=O)N(c2ccccc2)c2ccccc2)c(OC)c1  24.6 µM
5. CCN(C)C(=O)Oc1ccc(/C=C/C(=O)N2CCCCC2)cc1OC  29.6 µM
6. COc1cc(/C=C/C(=O)N2CCc3ccccc3C2)ccc1OC(=O)N(C)C  35.7 µM
